# Experimental data as given in PMC5580238 (ACS chemical neuroscience, 2016).
# “Also recorded” adds a separate entry of the source. Like-named read-outs stand apart in the source and are kept apart here.
# Tests used:
# [1] = biological target: PIB site in AD brain tissue homogenates (thioflavin-T binding site on β-amyloid plaques) (Homo sapiens, UniProt P05067)
# [2] = biological target: T807 site in AD brain tissue homogenates (NFTs) (Homo sapiens, UniProt P10636); assay type: binding; details: for Inhibition of specific binding of [3H]T807 to AD brain tissue homogenate: compound at 1 μM concentration
# [3] = biological target: AD brain homogenate (Homo sapiens, UniProt P10636); experiment: Titration; assay type: binding; details: titration with [18F]THK-523 plus THK-523; curve fit
# [4] = biological target: THK-523 site in AD brain tissue homogenates (NFTs) (Homo sapiens, UniProt P10636); assay type: binding; details: for Inhibition of specific binding of [3H]THK-523 to AD brain tissue homogenate: compound at 1 μM concentration; for Ki: Ki with [3H]THK-523 as reference radioligand
# [5] = Ligand solubility in binding assay media; assay type: physicochemical; details: in water or PBS
# Sequence of THK-523 site in AD brain tissue homogenates (NFTs) (P10636 623-708 limits assumed): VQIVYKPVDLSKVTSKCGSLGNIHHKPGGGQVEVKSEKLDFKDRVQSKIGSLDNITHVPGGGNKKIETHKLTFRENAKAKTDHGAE
# Sequence of T807 site in AD brain tissue homogenates (NFTs) (P10636 623-708 limits assumed): as above
# Sequence of PIB site in AD brain tissue homogenates (thioflavin-T binding site on β-amyloid plaques) (P05067 672-711 limits assumed): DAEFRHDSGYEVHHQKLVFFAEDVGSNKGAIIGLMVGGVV
# Sequence of AD brain homogenate (P10636 2-758): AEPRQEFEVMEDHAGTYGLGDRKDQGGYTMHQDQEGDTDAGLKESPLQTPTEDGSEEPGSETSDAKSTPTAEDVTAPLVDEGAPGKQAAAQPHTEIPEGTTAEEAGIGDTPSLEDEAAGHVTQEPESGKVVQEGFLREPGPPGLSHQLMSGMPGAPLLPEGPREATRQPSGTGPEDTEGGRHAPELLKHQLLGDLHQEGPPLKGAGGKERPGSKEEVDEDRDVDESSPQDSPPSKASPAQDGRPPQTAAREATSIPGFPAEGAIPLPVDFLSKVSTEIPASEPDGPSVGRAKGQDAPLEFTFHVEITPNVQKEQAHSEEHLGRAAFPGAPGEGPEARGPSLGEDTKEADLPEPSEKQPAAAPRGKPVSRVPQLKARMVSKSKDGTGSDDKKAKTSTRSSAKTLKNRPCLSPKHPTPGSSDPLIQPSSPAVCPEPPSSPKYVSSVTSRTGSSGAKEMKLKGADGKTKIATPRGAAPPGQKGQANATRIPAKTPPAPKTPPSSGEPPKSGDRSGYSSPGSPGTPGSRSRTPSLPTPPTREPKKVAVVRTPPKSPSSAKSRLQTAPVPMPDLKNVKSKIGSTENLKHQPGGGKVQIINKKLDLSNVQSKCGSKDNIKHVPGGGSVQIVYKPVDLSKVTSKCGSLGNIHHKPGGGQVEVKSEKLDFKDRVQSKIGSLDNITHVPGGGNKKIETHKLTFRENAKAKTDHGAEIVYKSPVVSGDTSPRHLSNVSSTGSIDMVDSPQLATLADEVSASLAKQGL
Compound,Ki [1],Ki [2],further results
"Nc1ccc(-c2ccc3cc(OCCOCCOCCOCCOCCF)ccc3n2)cc1 [10e, 4-(6-((14-Fluoro-3,6,9,12-tetraoxatetradecyl)oxy)quinolin-2-yl)-aniline]",43 ± 39 nM,–,–
"Nc1ccc(-c2ccc3cc(OCCOCCOCCF)ccc3n2)cc1 [10c, 4-(6-(2-(2-(2-Fluoroethoxy)ethoxy)ethoxy)quinolin-2-yl)aniline]",> 1000 nM,> 1000 nM,–
"Nc1ccc(-c2ccc3cc(OCCOCCOCCOCCF)ccc3n2)cc1 [10d, 4-(6-(2-(2-(2-(2-Fluoroethoxy)ethoxy)ethoxy)ethoxy)quinolin-2-yl)aniline]",> 1000 nM,> 1000 nM,–
Nc1ccc(-c2ccc3cc(OCCF)ccc3n2)cc1 [[^18F]THK-523],–,–,Bmax (concentration of maximal binding sites) [3]: 1639 ± 235 dpm; NS (coefficient of nonspecific binding) [3]: 169 ± 3
"Nc1ccc(-c2ccc3cc(OCCOCCF)ccc3n2)cc1 [10b, 4-(6-(2-(2-Fluoroethoxy)ethoxy)quinolin-2-yl)aniline]",> 1000 nM,> 1000 nM,–
Fc1ccc(-c2ccc3c(c2)[nH]c2ccncc23)cn1 [T807],–,–,Inhibition of specific binding of [3H]T807 to AD brain tissue homogenate [2]: full inhibition; Inhibition of specific binding of [3H]THK-523 to AD brain tissue homogenate ([4]; 1 µM): failed to inhibit; also recorded: very low inhibition
"Nc1ccc(-c2ccc3cc(OCCOCCOCCOCCOCCOCCF)ccc3n2)cc1 [10f, 4-(6-((17-Fluoro-3,6,9,12,15-pentaoxaheptadecyl)oxy)quinolin-2-yl)aniline]",> 500 nM,–,–

# Further lines, with some results ahead:
Ki [1],Ki [2],Compound,further results
> 1000 nM,> 1000 nM,"Nc1ccc(-c2ccc3cc(OCCOCCN4CCOC4=O)ccc3n2)cc1 [12c, 3-(2-(2-((2-(4-Aminophenyl)quinolin-6-yl)oxy)ethoxy)ethyl)-oxazolidin-2-one]",–
> 1000 nM,> 1000 nM,"Nc1ccc(-c2ccc3cc(OCCOCCNCCO)ccc3n2)cc1 [12f, 2-((2-(2-((2-(4-Aminophenyl)quinolin-6-yl)oxy)ethoxy)ethyl)-amino)ethan-1-ol]",–
> 1000 nM,425 ± 383 nM,"Nc1ccc(-c2ccc3cc(OCCF)ccc3n2)cc1 [THK-523, 4-(6-(2-Fluoroethoxy)quinolin-2-yl)aniline]","Solubility [5]: insoluble; Inhibition of specific binding of [3H]T807 to AD brain tissue homogenate ([2]; 1 µM): failed to inhibit; Inhibition of specific binding of [3H]T807 to AD brain tissue homogenate ([2]; listed as THK-523 (10a), 1 µM): very low inhibition; Ki ([4]; 20% ethanol wash): 28 ± 6 nM; Ki ([4]; Tris-buffer (pH 7.2) wash): 52 ± 14 nM; Ki ([4]; neat ethanol wash): 45 ± 12 nM; Inhibition of specific binding of [3H]THK-523 to AD brain tissue homogenate [4]: full inhibition"
